ChEMBL document CHEMBL1133991, “Bioisosteres of 9-carboxymethyl-4-oxo-imidazo[1,2-a]indeno-[1,2-e]pyrazin-2-carboxylic acid derivatives. Progress towards selective, potent in vivo AMPA antagonists with longer durations of action” (Bioorg Med Chem Lett, 2001)
Activity calls are given as the source filed them. No cut-off for these calls is given here.

Key:
Glutamate NMDA receptor = assay: In vitro binding affinity towards NMDA glutamate receptor using [3H]5,7-dichlorokynurenate as ligand on rat cortical membrane preparations
Mus musculus [1] = species on record: Mus musculus; assay: (§1) Dose which protected 50 % of the mice from a tonic convulsion.; assay type: functional
[2] = target: T1, Glutamate receptor ionotropic, AMPA (Rattus norvegicus, UniProt P19490+P19491+P19492+P19493)
Description: Affinity towards Ionotropic glutamate receptor AMPA using [3H]AMPA as ligand on rat cortical membrane preparations

Mus musculus [3] = species on record: Mus musculus; assay: as §1; assay type: functional; remark: listed apart in the source
Mus musculus [4] = assay: Dose which protected 50 % of the mice from a tonic convulsion, pretreatment was before 3 hr by i.v. administration in MES test.; assay type: functional; details: iv
Mus musculus [5] = assay: Dose which protected 50 % of the mice from a tonic convulsion, pretreatment was before 3 hr by i.v. administration in MES test at 40 mg/kg (Inactive); assay type: functional, organism-based; set-up: dose 40 mg/kg
[6] = target: T1, Glutamate receptor ionotropic, AMPA; remark: listed apart in the source
Description: Compound was evaluated for potent antagonist intrinsic activity against Ionotropic glutamate receptor AMPA

In the case of `O=C(O)CCc1cn2c3c(nc(O)c2n1)-c1cccc(CC(=O)O)c1C3`, the IC50 (Glutamate NMDA receptor) is reported as 1600 nM, the ED50 (Mus musculus [1]) is reported as 1.9 mg/kg and the IC50 [2] is reported as 31 nM.
With `O=C(O)Cc1cccc2c1Cc1c-2nc(O)c2nc(-c3ccc(C(=O)O)cc3)cn12` the ED50 (Mus musculus [3]) was 5 mg/kg, the ED50 (Mus musculus [4]) was 15 mg/kg and the IC50 (Glutamate NMDA receptor) was 5800 nM. The ED50 (Mus musculus [1]) was 5 mg/kg and the IC50 [2] was 12 nM.
`O=C(O)Cc1cccc2c1Cc1c-2nc(O)c2nc(-c3ccccc3C(=O)O)cn12` was tested, and the IC50 (Glutamate NMDA receptor) was 6100 nM and the IC50 [2] was 100 nM.
With `O=C(O)Cc1cn2c3c(nc(O)c2n1)-c1cccc(CC(=O)O)c1C3` the ED50 (Mus musculus [3]) was 0.5 mg/kg and the ED50 (Mus musculus [4]) was 28 mg/kg.
`O=C(O)c1cn2c3c(nc(O)c2n1)-c1cccc(CP(=O)(O)O)c1C3` was tested, and the IC50 (Glutamate NMDA receptor) was > 10000 nM, the ED50 (Mus musculus [1]) was 5.6 mg/kg and the IC50 [2] was 586 nM.
For `O=C(O)/C=C/c1cn2c3c(nc(O)c2n1)-c1cccc(CC(=O)O)c1C3`, the ED50 (Mus musculus [3]) was 3.8 mg/kg, the ED50 (Mus musculus [4]) was 25.6 mg/kg and the IC50 (Glutamate NMDA receptor) was > 10000 nM. For the same compound, the ED50 (Mus musculus [1]) was 2.2 mg/kg and the IC50 [2] was 30 nM.
`CS(=O)(=O)NC(=O)Cc1cccc2c1Cc1c-2nc(O)c2nc(C(=O)O)cn12` gave an IC50 (Glutamate NMDA receptor) of 1200 nM and an IC50 [2] of 235 nM.
In the case of `O=c1[nH]c2cc(-n3ccnc3)c([N+](=O)[O-])cc2[nH]c1=O` [YM-90K], the ED50 (Mus musculus [4]) is reported as > 40 mg/kg.
For `O=C(O)[C@@H]1C[C@H]2C[C@@H](CCc3nn[nH]n3)CC[C@H]2CN1` [TEZAMPANEL ANHYDROUS], the ED50 (Mus musculus [3]) was 3.4 mg/kg.
In the case of `CNC(=O)Cc1cccc2c1Cc1c-2nc(O)c2nc(C(=O)O)cn12`, the ED50 (Mus musculus [3]) is reported as 5 mg/kg, the ED50 (Mus musculus [4]) is reported as > 20 mg/kg and the IC50 (Glutamate NMDA receptor) is reported as 328 nM. For the same compound, the ED50 (Mus musculus [1]) was 10 mg/kg and the IC50 [2] was 189 nM.
`O=C(Cc1cccc2c1Cc1c-2nc(O)c2nc(C(=O)O)cn12)NS(=O)(=O)c1ccccc1` gave an IC50 (Glutamate NMDA receptor) of 2000 nM and an IC50 [2] of 139 nM.
`O=C(O)Cc1cccc2c1Cc1c-2nc(O)c2nc(P(=O)(O)O)cn12` was tested, and the ED50 (Mus musculus [3]) was 2.9 mg/kg, the ED50 (Mus musculus [4]) was 3.5 mg/kg and the IC50 (Glutamate NMDA receptor) was > 10000 nM. It also gave an ED50 (Mus musculus [1]) of 3.5 mg/kg and an IC50 [2] of 150 nM.
With `O=C(O)c1cn2c3c(nc(O)c2n1)-c1cccc(Cc2nn[nH]n2)c1C3` the ED50 (Mus musculus [3]) was 2 mg/kg, the IC50 (Glutamate NMDA receptor) was 537 nM and the ED50 (Mus musculus [5]) was “inactive”. The ED50 (Mus musculus [1]) was 2.3 mg/kg and the IC50 [2] was 15 nM.
In the case of `O=C(O)Cc1cccc2c1Cc1c-2nc(O)c2nc(CP(=O)(O)O)cn12`, the ED50 (Mus musculus [3]) is reported as 2.5 mg/kg, the ED50 (Mus musculus [4]) is reported as 22.4 mg/kg and the IC50 (Glutamate NMDA receptor) is reported as > 10000 nM. It also gave an ED50 (Mus musculus [1]) of 4.7 mg/kg and an IC50 [2] of 147 nM.
`O=C(O)Cc1cccc2c1Cc1c-2nc(O)c2nc(C(=O)O)cn12` was tested, and the ED50 (Mus musculus [4]) was 25.6 mg/kg.
`O=P(O)(O)c1cn2c3c(nc(O)c2n1)-c1cccc(Cc2nn[nH]n2)c1C3` showed an ED50 (Mus musculus [3]) of 0.8 mg/kg, an IC50 [6] of 6 nM and an ED50 (Mus musculus [4]) of 3.5 mg/kg. The IC50 (Glutamate NMDA receptor) was 2360 nM, the ED50 (Mus musculus [1]) was 1 mg/kg and the IC50 [2] was 13 nM.
`O=C(O)Cc1cccc2c1Cc1c-2nc(O)c2nc(-c3cccc(C(=O)O)c3)cn12` showed an IC50 (Glutamate NMDA receptor) of 7200 nM, an ED50 (Mus musculus [1]) of 8.6 mg/kg and an IC50 [2] of 40 nM.
